Test results taken from patent publication US4231946A, “14,15-Methylene derivatives of the estrane series and methods for preparing same” (VEB Jenapharm, priority 1978, dated 1980).
Read-outs that look alike come from different tables or passages of the source.

Key:
ovariectomized mice = assay: Allen-Doisy test in ovariectomized mice (estrogenic properties); type: in vivo, mouse
From the text: (§1) STS 593 was weaker than ethynylestradiol by a factor of 9 in its estrogenic properties as shown by the Allen-Doisy test in ovariectomized mice. The compound was only 7% as active as the standard mestranol in producing a uterine response in infantile rats (Table 3), whereas the antiestrogenic properties exceeded those of clomiphene citrate by a factor of 1.4.

[1] = test system: infantile female Wistar rats; assay: Uterine activity in infantile female Wistar rats; type: in vivo, Wistar rat; conditions: for Uterine weight (-x): n=10
From the text: as §1
Comparison of uterine activity in infantile female
Wistar rats produced by STS 593 and mestranol

[2] = Antiestrogenic properties; conditions: in vivo
From the text: as §1

rats (testicular mass) = assay: Antigonadotrophic activity (testicular mass) in rats; type: in vivo, rat; conditions: for ED50: Rattus norvegicus; for IE %: testicular mass
Protocol: The effective dose for the HE50 was close to 0.65 mg/kg of body-wt./5 d, while mestranol has the same effect at a dose as low as 0.15 mg/kg of body-wt./5 d.

infantile male rats = assay: Androgenic, anabolic and antiandrogenic effects in infantile male rats; type: in vivo, rat; conditions: orally over 6 days, total doses 0.75-3.0 mg/animal
From the text: (§2) The HE of 97.3% is significant (Table 5).

infantile rabbit uteri = assay: McPhail test, progestagenic and antiprogestagenic activities in infantile rabbit uteri; type: in vivo
From the text: as §2
Progestagenic and antiprogestagenic activities of STS 593
in infantile rabbit uteri as shown by the McPhail test

[3] = in vivo
From the text: In this context the compound is better than mestranol by a factor of 6.

[4] = test system: mice (uterine fresh weight); assay: Uterine activity in mice (dose for doubling uterine fresh weight); type: in vivo, mouse; conditions: p.o.
From the text: (§3) Uterine and contraceptive activities produced by selected
(§4) 14,15-methylene-17-ol-estratrienes in mice

mice = assay: Contraceptive activity in mice, single application on 1st day of gestation; type: in vivo, mouse; conditions: mice, 10 mg/kg p.o., single application
Protocol: Gestation and nidation inhibition expressed in % were used as parameters for antifertility effects. GHE1 (gestation inhibitory effect) and IHE1 (nidation inhibitory effect) were related to the inhibition of the total of gestations or nidations, GHE2 and IHE2 were related to the inhibition of normal gestations or nidations within each group. […] GHE1, GHE2, IHE1 and IHE2 were calculated using the following formulae: [formula] n=number of females inseminated in each group v=test group
f=average number (x) of all implantations (IHE1) and of normal implantations (IHE2) p. female inseminated within a group, respectively.
For GHE1 and GHE2 the ED (effective doses) for the HE (inhibitory effect) 0%, 50%, and 95% as far as possible were determined by means of the probit analysis. The ED50 for IHE1 and IHE2 were determined graphically.
as §3, §4

[5] = total dose 0.25 mg/kg of body-wt. p.o., n=9
[6] = total dose 0.50 mg/kg of body-wt. p.o., n=10
[7] = total dose 1.00 mg/kg of body-wt. p.o., n=10
[8] = 10 mg/kg p.o. + progesterone 4 mg/animal s.c., over 4 days, n=5

COc1ccc2c(c1)CC[C@@H]1[C@@H]2CC[C@]2(C)[C@@H](O)C[C@H]3C[C@@]312 [STS 593, 3-methoxy-14β,15β-methylene-estra-1,3,5(10)-triene-17β-ol]
Estrogenic properties: factor weaker than ethynylestradiol (ovariectomized mice): 9 factor | Uterine response, activity relative to mestranol ([1]; infantile rats): 7% | Uterine weight (-x) ([1]; total dose 0.1 per animal over 3 days p.o.): 27.63 mg | Uterine weight (-x) ([1]; total dose 1.0 per animal over 3 days p.o.): 52.40 mg | Uterine weight (-x) ([1]; total dose 10.0 per animal over 3 days p.o.): 75.90 mg | Antiestrogenic properties: factor exceeding clomiphene citrate [2]: 1.4 factor | Antiestrogenic properties (in words) ([2]; listed as 3-methoxy-14β,15β-methylene-estra-1,3,5(10)-triene-17β-ol): marked antiestrogenic properties | Antiestrogenic properties (in words) ([2]; listed as 3-methoxy-14β-15β-methylene-estra-1,3,5(10)-triene-17β-ol): produces antiestrogenic and antiprogestagenic effects | ED50 (rats (testicular mass); 120 h, rats, read-out: Effective dose for the HE50, antigonadotrophic): ~0.65 mg/kg | ED50 (rats (testicular mass); po, antigonadotrophic, total dose p.o., read-out: HE 50 (the source's name)): 0.65 mg/kg | Antigonadotrophic effect compared to mestranol (rats (testicular mass); rats): four times weaker than mestranol | IE % (rats (testicular mass); [5]): 18.1% | IE % (rats (testicular mass); [6]): 39.6% | IE % (rats (testicular mass); [7]): 68.9% | Testicular mass (-x ± s-x) (rats (testicular mass); [5]): 312.4 ± 42.5 mg | Testicular mass (-x ± s-x) (rats (testicular mass); [6]): 272.3 ± 37.7 mg | Testicular mass (-x ± s-x) (rats (testicular mass); [7]): 217.6 ± 24.2 mg | Anabolic effects (infantile male rats): did not show any | Androgenic effects (infantile male rats): did not show any | Antiandrogenic effects (infantile male rats): did not show any | McPhail index (-x) (infantile rabbit uteri; 2 mg/kg p.o. + progesterone 4 mg/animal s.c., over 4 days, n=6): 3.8 | McPhail index (-x) (infantile rabbit uteri; 2 mg/kg p.o. alone, total dose over 4 days, n=5): 0 | HE % (infantile rabbit uteri; [8]): 26.7% | McPhail index (-x) (infantile rabbit uteri; [8]): 2.2 | McPhail index (-x) (infantile rabbit uteri; 50 mg/kg p.o. + progesterone 4 mg/animal s.c., over 4 days, n=6): 0.08 | HE % (infantile rabbit uteri; 50 mg/kg p.o. + progesterone 4 mg/animal s.c., over 4 days, significant): 97.3% | Antiprogestagenic effects (in words) (infantile rabbit uteri; rabbit, in vivo): produces antiestrogenic and antiprogestagenic effects | Progestagenic activity (infantile rabbit uteri; rabbit, in vivo): lacking in progestagenic activity | Antiprogestagenic properties (infantile rabbit uteri; rabbits, oral, 50 mg/kg): showed antiprogestanenic properties | Separation of contraceptive activity and undesirable post implantation fetal damage (in words) [3]: favorable separation | Separation of contraceptive activity and undesirable post implantation fetal damage: factor better than mestranol [3]: 6 factor | Total dose for doubling uterine fresh weight [4]: 0.45 μg/animal | THE, % after single application of 10 mg/kg of body-wt. on the 1st day of gestation p.o. (mice): 80.2%
